pIC50: −log10 of the molar value.
System: S. Typhimurium PhoP-regulated promoter GFP reporter, 4 h
Assay: PhoP-dependent GFP reporter repression – Salmonella Typhimurium, primary screen (AID 1863)

## CN1CCN(C(c2ccc(Cl)cc2)c2cc(Cl)c3cccnc3c2O)CC1 (stereo unspecified)
  pIC50: 4.36

## Cc1[nH]n(-c2ccccc2)c(=O)c1/C=N/Nc1nncc(-c2ccccc2)n1
  pIC50: 4.53

## O=C1C(=O)c2ccccc2-c2ccccc21
  pIC50: 4.93

## CCN1CCN(C(c2ccc(C(F)(F)F)cc2)c2ccc3cccnc3c2O)CC1 (stereo unspecified)
  pIC50: 4.26

## CC1CCc2c(N3CCC(O)CC3)c(F)cc3c(=O)c(C(=O)O)cn1c23 (stereo unspecified)
  pIC50: 5.20

## Nc1ncn([C@@H]2O[C@H](CO)[C@@H](O)[C@H]2O)c(=O)n1
  pIC50: 4.30

## CC[n+]1c(/C=C/c2ccc(N(C)C)cc2)ccc2ccccc21
  pIC50: 4.26

## CCCCCOc1ccc(Br)cc1CSC(=N)N
  pIC50: 4.24

## Nc1c(Cl)ncnc1N/N=C/c1ccccn1
  pIC50: 4.51

## CCOC(=O)N1CCN(C(=O)c2cn(CC)c3cc(N4CCN(C)CC4)c(F)cc3c2=O)CC1
  pIC50: 5.31

## C/C(=N\Nc1ncnc2sc(C)c(C)c12)c1ccccn1
  pIC50: 4.13

## Nc1nonc1C(=O)N/N=C/c1cc(Br)ccc1O
  pIC50: 4.77

## Cc1ccc(Nc2nc(N)c3ccccc3n2)cc1Cl
  pIC50: 4.17

## O=C1C=C(O)c2c(O)cc(O)c(O)c2C1=O
  pIC50: 4.14

## COc1ccccc1CNCCc1ccc(F)cc1
  pIC50: 4.37

## O=C(N/N=C/c1cc([N+](=O)[O-])ccc1O)C1CC1
  pIC50: 4.18

## OCCN1CCN(Cc2cc(Cl)c3cccnc3c2O)CC1
  pIC50: 3.98

## O=C(N/N=C\C=C\c1ccc([N+](=O)[O-])o1)c1cccs1
  pIC50: 4.63

## CCn1cc(C(=O)O)c(=O)c2cc(F)c(N3CCN(C(=S)NC(=O)c4cccc(C)c4)CC3)cc21
  pIC50: 4.83

## CCCNC(=O)c1cn(CC)c2cc(N3CCN(C)CC3)c(F)cc2c1=O
  pIC50: 4.59

## O=C(CSc1nc2ccccc2s1)N/N=C/c1cc([N+](=O)[O-])ccc1O
  pIC50: 3.96

## CCCCCCCCCC[N+](C)(C)CC/C=C1/c2ccccc2Sc2ccc(Cl)cc21
  pIC50: 4.73

## Clc1cc(Br)ccc1OCCCNCc1ccccc1
  pIC50: 4.08

## CN1CCN(C(c2ccccn2)c2cc(Cl)c3cccnc3c2O)CC1 (stereo unspecified)
  pIC50: 4.02

## O=c1[nH]c2ccccc2n2c(=S)[nH]nc12
  pIC50: 4.40

## O=[N+]([O-])c1ccc(CNC2CCCc3ccccc32)cc1 (stereo unspecified)
  pIC50: 4.09

## Cc1nc([N+](=O)[O-])c(Br)n1CC(=O)c1ccccc1
  pIC50: 3.84

## O=C(NC(=S)NNC(=O)c1ccccc1O)c1ccco1
  pIC50: 4.15

## C[C@H]1c2cccc(O)c2C(O)=C2C(=O)[C@]3(O)C(O)=C(C(N)=O)C(=O)[C@@H](N(C)C)C3[C@@H](O)C21 (stereo partly specified)
  pIC50: 5.28

## O=C(C[n+]1cc(-c2ccc(Cl)cc2)n2c1CCC2)Nc1nc(-c2ccccc2)cs1
  pIC50: 4.07

## Clc1ccc(CNCc2cccs2)cc1Cl
  pIC50: 4.13

## C=CC1=C(C(=O)O)N2C(=O)[C@@H](NC(=O)/C(=N\O)c3csc(N)n3)[C@H]2SC1 (stereo in doubt)
  pIC50: 4.60

## Cc1ccc(-c2c[n+](CC(=O)Nc3nc(-c4ccc(F)cc4)cs3)c3n2CCC3)cc1
  pIC50: 4.17

## CN1CCN(C(c2ccc(C(F)(F)F)cc2)c2cc(Cl)c3cccnc3c2O)CC1 (stereo unspecified)
  pIC50: 4.47

## CN(C)c1ccc(/C=C/c2ccc3ccccc3[n+]2C)cc1
  pIC50: 4.73

## Nc1nc2ccccc2n1Cc1ccc(Cl)c(Cl)c1
  pIC50: 4.08

## Oc1cccc(Nc2nc(NCC3CCCO3)c3ccccc3n2)c1 (stereo unspecified)
  pIC50: 3.85

## O=C1C(SCCO)=C(SCCO)C(=O)c2ccccc21
  pIC50: 4.15

## Cc1cc(C(=O)N/N=C/c2ccc([N+](=O)[O-])s2)n[nH]1
  pIC50: 4.37

## O=S1(=O)Nc2c(ccc3cccnc23)-c2ccccc21
  pIC50: 5.11

## Oc1ccc(/C=N/Nc2nccnc2Cl)c(O)c1
  pIC50: 4.19

## O=[N+]([O-])c1ccc(-c2ccn[nH]2)o1
  pIC50: 4.42

## CCCCCCCCNC(C)C(O)c1ccc(SC(C)C)cc1 (stereo unspecified)
  pIC50: 4.12

## C=CCNc1ncnc2c1[nH]c1ccc(Cl)cc12
  pIC50: 3.86

## C(=N\Nc1ccccn1)/c1cccnc1
  pIC50: 4.39

## CN(C)CCCN(C(=O)CCc1ccccc1)c1nc2ccc(Cl)cc2s1
  pIC50: 4.32

## COc1nsnc1NS(=O)(=O)c1ccc(NC(=S)NC(=O)c2cccnc2)cc1
  pIC50: 3.94

## Nc1nc(F)nc2c1ncn2[C@@H]1O[C@H](CO)[C@@H](O)[C@H]1O
  pIC50: 4.56

## O=C(c1cccs1)c1no[n+]([O-])c1C(=O)c1cccs1
  pIC50: 4.47

## COc1ccc(/C=N/Nc2cc(C)nc3ccccc23)cc1
  pIC50: 4.42

## O=C(/C=C/c1ccccc1Cl)c1ccccc(=O)c1O
  pIC50: 4.40

## CC1CCc2cc(F)cc3c(=O)c(C(=O)O)cn1c23 (stereo unspecified)
  pIC50: 5.23

## CCn1cc(C(=O)O)c(=O)c2cc(F)c(N3CCN(C(=S)Nc4ccccc4OC)CC3)cc21
  pIC50: 4.96

## Cc1nc(N)nc(N)c1/C=C/C(C)(C)c1ccc(Cl)cc1
  pIC50: 4.73

## CCn1cc(C(=O)NCCO)c(=O)c2cc(F)c(N3CCN(C)CC3)cc21
  pIC50: 4.65

## Clc1ccc(C[n+]2cc(-c3ccc(Cl)cc3)n3c2CCC3)cc1
  pIC50: 3.90

## CC[n+]1c(/C=C/N(C)c2ccccc2)n(-c2ccccc2)c2ccc(-c3nc4ccccc4s3)cc21
  pIC50: 4.58

## Cc1ccc(-c2csc(NC(=O)C[n+]3cc(-c4ccc(C)cc4)n4c3CCC4)n2)cc1
  pIC50: 4.30

## Cc1ccc(Nc2nc(NCc3ccco3)c3ccccc3n2)cc1
  pIC50: 4.36

## O=[N+]([O-])c1cc(/C=N/Nc2nc3ccccc3[nH]2)c(O)cc1O
  pIC50: 4.61

## NC1=NC[C@H](Cc2ccccc2)N1CCCCC1CCCCC1
  pIC50: 4.32

## Oc1c(C(Nc2ccccn2)c2ccccn2)ccc2cccnc12 (stereo unspecified)
  pIC50: 4.04

## CC(C)(C)/C(O)=C/c1nc2cc(Cl)ccc2oc1=O
  pIC50: 4.00

## O=C1c2ccccc2NC(c2ccc(-c3ccc(Br)cc3)o2)N1O (stereo unspecified)
  pIC50: 3.98

## CC(=O)N1CCN(c2cc3c(cc2F)c(=O)c(C(=O)O)cn3C2CC2)CC1
  pIC50: 4.79

## COc1cc(C)c(Cc2cnc(N)nc2N)cc1OC
  pIC50: 4.93

## CCN1CCN(C(c2cccnc2)c2cc(Cl)c3cccnc3c2O)CC1 (stereo unspecified)
  pIC50: 4.10

## O=C1c2ccccc2NC(c2ccc(-c3cccc(Cl)c3)o2)N1O (stereo unspecified)
  pIC50: 3.94

## C=C1c2cccc(O)c2C(O)=C2C(=O)[C@]3(O)C(O)=C(C(N)=O)C(=O)[C@@H](N(C)C)[C@@H]3[C@@H](O)[C@H]12
  pIC50: 5.85

## CCCCCCCCCCCCCCCC[n+]1ccc(/C=N/O)cc1
  pIC50: 4.48

## CN1CCc2c(sc(NC(=O)c3ccc([N+](=O)[O-])o3)c2C(N)=O)C1
  pIC50: 4.28

## Oc1c(I)cc(Cl)c2cccnc12
  pIC50: 4.75

## CCCOc1ccc(C(=O)NC(=S)N2CCN(c3cc4c(cc3F)c(=O)c(C(=O)O)cn4CC)CC2)cc1
  pIC50: 4.61

## CS(=O)(=O)c1ccc([C@@H](O)[C@@H](CF)NC(=O)C(Cl)Cl)cc1
  pIC50: 5.01

## CCN1/C(=C/C(C)=C/c2sc3ccccc3[n+]2CC)Sc2ccccc21
  pIC50: 4.75

## Oc1cccc(/C=N/NC(=S)Nc2cccnc2)c1O
  pIC50: 4.34

## C#CCOCCOCCOCCNc1nc(N2CCN(C(=O)CCCCCCCCCCNC(=O)[C@H]([C@@H](C)CC)n3cc(CCCCN=C(N)N)nn3)CC2)nc(N2CCN(C(=O)CCCCCCCCCCNC(=O)[C@H](CCCN=C(N)N)n3cc(C[C@@H](C)CC)nn3)CC2)n1
  pIC50: 4.12

## C#CCOCCOCCOCCNc1nc(N2CCN(C(=O)CCCCCCCCCCNC(=O)[C@H](CCCCN)n3cc(C[C@@H](C)CC)nn3)CC2)nc(N2CCN(C(=O)CCCCCCCCCCNC(=O)[C@H](CCCN=C(N)N)n3cc(C[C@@H](C)CC)nn3)CC2)n1
  pIC50: 4.09

## Fc1ccccc1CCNCc1ccccc1
  pIC50: 4.23

## COc1c(N2CCNC(C)C2)c(F)cc2c(=O)c(C(=O)O)cn(C3CC3)c12 (stereo unspecified)
  pIC50: 6.24

## C/C(=N\NC(=O)c1cc2ccccc2cc1O)c1ccccn1
  pIC50: 4.42

## CCn1cc(C(=O)O)c(=O)c2cc(F)c(N3CCN(C(=S)NC(=O)c4cccc(F)c4)CC3)cc21
  pIC50: 4.74

## Cc1ccc(/C=C/C(=O)c2ccccc(=O)c2O)cc1C
  pIC50: 4.37

## CNC[C@H](Cc1ccccc1)NC[C@@H](Cc1cccc2ccccc12)NCCc1ccc(C)cc1
  pIC50: 4.57

## CCCCCCCCCCOC(=O)Cn1c(COc2cccc(C)c2)[n+](C)c2ccccc21
  pIC50: 4.73

## O=C(Cn1nc(CNc2ccc(Cl)cc2)[n+]2c1CCCCC2)c1ccc(Br)cc1
  pIC50: 4.04

## COC(=O)C(C)NC(=S)N1CCN(c2c(F)cc3c(=O)c(C(=O)O)cn(C4CC4)c3c2OC)CC1C (stereo unspecified)
  pIC50: 4.12

## O=C1NC(=S)S/C1=C\C=C\c1ccc([N+](=O)[O-])o1
  pIC50: 4.65

## O=C(Oc1c(Cl)cc(Cl)c2cccnc12)c1ccco1
  pIC50: 4.33

## OC(c1cc(-c2ccc(C(F)(F)F)cc2)nc(C(F)(F)F)c1)C1CCCCN1 (stereo unspecified)
  pIC50: 4.42

## CCCCNC(=O)c1cn(CC)c2cc(N3CCN(C)CC3)c(F)cc2c1=O
  pIC50: 4.63

## C1=C(CCNCc2ccccc2)CCCC1
  pIC50: 5.04

## CCNC(=S)NNC(=O)c1ccccn1
  pIC50: 4.20

## Nc1ncn(C2O[C@H](CO)[C@@H](O)[C@H]2O)c(=O)n1 (stereo partly specified)
  pIC50: 4.40

## CCCCOc1ccc(Br)cc1CSC(=N)N
  pIC50: 4.05

## C#CCOCCOCCOCCNc1nc(N2CCN(C(=O)CCCCCCCCCCNC(=O)[C@H](CO)n3cc(CCCCCN)nn3)CC2)nc(N2CCN(C(=O)CCCCCCCCCCNC(=O)[C@H](CCCN=C(N)N)n3cc(C[C@@H](C)CC)nn3)CC2)n1
  pIC50: 3.99

## Nc1cccc2nc3ccccc3cc12
  pIC50: 4.24

## CCCCCCOC(=O)C[N+](C)(C)CCOC1CC2CCC1(C)C2(C)C (stereo unspecified)
  pIC50: 4.40

## C=C1c2c(Cl)ccc(O)c2C(O)=C2C(=O)[C@]3(O)C(O)=C(C(N)=O)C(=O)[C@@H](N(C)C)[C@@H]3[C@@H](O)C12 (stereo partly specified)
  pIC50: 5.65

## Oc1cccc2ccc(Nc3ccccn3)nc12
  pIC50: 4.72

## CC(C)Oc1ccc(Cc2cnc(N)nc2N)cc1
  pIC50: 4.04

## CN(C)CCCNc1cc(C(C)(C)C)nc2c(-c3ccccc3)cnn12
  pIC50: 4.17

## CCn1cc(C(=O)O)c(=O)c2cc(F)c(N3CCN(C)CC3)cc21
  pIC50: 6.00

## CCCCCN=C(N)N/N=C/c1c[nH]c2ccc(OC)cc12
  pIC50: 4.29

## CC(=O)c1c(C)n([O-])c2cc(F)c(F)cc2[n+]1=O
  pIC50: 3.89

## CCn1cc(C(=O)O)c(=O)c2cc(F)c(N3CCN(C(=S)NC(=O)c4c(OC)cccc4OC)CC3)cc21
  pIC50: 4.52

## O=C(N/N=C/c1cc(O)ccc1Br)c1cccnc1
  pIC50: 4.21

## Cc1c2ccncc2c(C)c2c1[nH]c1ccccc12
  pIC50: 4.58

## O=C1C=C(N2CCOCC2)c2ccccc2C1=O
  pIC50: 4.29

## CCCC(=O)NC(c1cccs1)c1cc([N+](=O)[O-])c2cccnc2c1O (stereo unspecified)
  pIC50: 4.42

## O=[N+]([O-])c1cc(Cl)c(O)c2ncccc12
  pIC50: 5.21

Source: PubChem BioAssay AID1863 (Southern Research Specialized Biocontainment Screening …, 2009)
